Data set [1] deals with T1, hPTP1B1-400 (Homo sapiens, UniProt P18031).
T1 sequence (P18031 1-400): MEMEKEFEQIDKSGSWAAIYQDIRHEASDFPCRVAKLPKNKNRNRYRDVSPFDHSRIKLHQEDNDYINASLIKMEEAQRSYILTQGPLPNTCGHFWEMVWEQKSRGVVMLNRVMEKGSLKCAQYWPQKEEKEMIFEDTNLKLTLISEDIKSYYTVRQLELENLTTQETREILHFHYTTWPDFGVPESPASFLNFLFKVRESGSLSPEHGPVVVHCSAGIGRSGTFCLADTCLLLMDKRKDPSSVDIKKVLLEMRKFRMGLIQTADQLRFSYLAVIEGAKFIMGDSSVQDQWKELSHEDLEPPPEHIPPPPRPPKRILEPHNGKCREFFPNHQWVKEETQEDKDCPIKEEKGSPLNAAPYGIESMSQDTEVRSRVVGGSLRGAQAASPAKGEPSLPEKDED
The data set can be described thus: PTP1B inhibition assay (spectrophotometric, 4-nitrophenyl phosphate). In kind it is biochemical. The procedure:
The inhibitory activity was determined as a percentage compared to the blank (Buffer) according to the following equation: %InhibitionPTP1B=1−A405s/A405b×100%, (1) where A405(s) is the ΔA of the sample (At20 − At0), A405(b) is the ΔA of the blank obtained in the same manner as that of the sample. Using the data obtained, the enzyme inhibition curve was plotted, for which the average percentage of inhibition was plotted as a function of the inhibitor concentration.

Data set [2] concerns the target T2, PTP1B (Homo sapiens, UniProt P18031).
T2 sequence (P18031 1-400): T1 sequence (P18031 1-400)
Put plainly: Kinetic analysis of PTP1B inhibition. Format: biochemical. The procedure:
The conditions for preparing reagents (enzyme and substrate), incubation, and analysis of results were the same as that described in Section 2.1 ([Jiménez-Arreola et al., 2020]; [Díaz-Rojas et al., 2021]). Additional steps in the methodology are described below.
To characterize the type of inhibition exerted by 1, 3, and 6 on PTP1B, the hydrolysis of 4-NP at the sub-saturating state and increasing concentrations of each compound was measured. […] The compound concentration yielding 50% activity inhibition was interpolated from the results by fitting into a general inhibition model. The resulting set of activities was fitted globally using the non-linear regression algorithm of Levenberg–Marquardt as implemented in the Gnuplot ([Williams et al., 2017]). Each group was fitted to the kinetic equations for linear competitive, linear uncompetitive, linear non-competitive (classic), linear mixed type, parabolic competitive, parabolic uncompetitive, and parabolic non-competitive inhibition mechanisms. The best fit was ascertained by the reduced chi-squared (χ^2) value, residual distribution, and uncertainty in the parameter estimates. The best description of the inhibition data for compounds 1, 3, and 6 was obtained with Eq. 2, Eq. 3, and Eq. 4, respectively, where VMAX, KM, and KIcu, KIC, and KIU are the maximum velocity, Michaelis constant for the substrate 4-NP, and inhibition constants for each type of inhibition, respectively. v0=VMAX4NP/KM1+I/KIcu+4NP1+I/KIcu, (2) v0=VMAX4NP/KM1+I/KIC+4NP1+I/KIU, (3) v0=VMAX4NP/KM1+I/KIC+I^2/KIC2^2+4NP. (4)

The subject of data set [3] is ICR mice. Conditions: male, mouse, in vivo, 14 days. The procedure: The potential acute toxicity of compound 6 was determined according to the Lorke’s method ([Lorke, 1983]). The evaluation was performed following the Official Mexican Norm for Laboratory Animal Care and Use (NOM-062-ZOO-1999), with international conventional codes for laboratory animal use, and approved by the Institutional Committee for Care and Use of Laboratory Animals (CICUAL-FQ), Facultad de Química, UNAM (FQ/CICUAL/440/21). […]. At the end of the experiments, the mice were euthanized by hypoxia in a CO2 chamber.
Compound 6 was fed by an intragastric route in two independent phases. In each case, 12 mice were divided into four groups (n = 3). In the first stage, the animals were treated with 10, 100, and 1,000 mg/kg; in the second phase, 1,600, 2,900, and 5,000 mg/kg were administered. The control animals were fed 0.05% Tween 80® in saline solution. The weight of the animals was measured daily for 14 days at each stage. At the end of the test, all animals were euthanized to obtain the lungs, heart, kidneys, and liver to detect macroscopic organ injury.

“And” between values parts separate entries of the source, which are not always exact repeats. Identical values can stand only once. Like-named read-outs stand apart in the source and are kept apart here.

With `CC=CC1=CC=CC(=C2C(=O)CNC2=O)O1` [Compound 6, E/Z-vermelhotin], the IC50 in data set [1] (DoseResp model fit, Origin 8.0, axis C (mM), read-out: LOGx0 of the IC50 curve) is 0.0796 ± 0.0957 mM; in data set [1] (enzyme 66 nM, 4-NP 0.125 mM, Tris-HCl pH 6.8, 20 min, room temperature, read-out: IC50) it was 0.0796 ± 0.0001 mM; in data set [1] (negative log of the IC50 in Molar, read-out: pIC50 (converted)), 0.0794 mM. In data set [1] (absolute pIC50 difference against ursolic acid), the “ΔA, activity difference between UA and the compound” value was 0.6 and 0.56. In addition, the type of inhibition entry in data set [2] (double-reciprocal plots, global nonlinear fit) is “competitive parabolic inhibition”. The compound further gave a VMAX in data set [2] (maximum velocity, nonlinear fit, substrate 4-NP) of 24.7 mM/min. Also, the Ki was 31 µM in data set [2] (mixed type (Eq. 3) or parabolic competitive model (Eq. 4), read-out: KIC) and 20 µM in data set [2] (parabolic competitive model (Eq. 4), second inhibitor molecule, read-out: KIC2). Besides, the LC50 result in data set [3] is on record as “higher than 5,000 mg/kg”.

Source of the values: PMC10644722, “Discovery of inhibitors of protein tyrosine phosphatase 1B contained in a natural products library from Mexican medicinal plants and fungi using a combination of enzymatic and in silico methods**” (Frontiers in Pharmacology, 2023).
